Legend:
Rac1 = biological target: T1, Rac1 (Homo sapiens, UniProt P63000); assay: Rho-GEF IC50 assay (GEF/DH domain-mediated mant-GTP binding); assay type: biochemical
T1 construct: purchased Cytoskeleton Inc
Protocol: (§1) Rho-GEF IC50 Assay: Rho-GEF assay (Cytoskeleton Inc., Denver, Colorado, United States of America) was conducted per manufacturer's instructions (λex=360 nm, λem=460 nm). Briefly, a solution (50 μL) of purified Rho GTPase (1 μM) and mant-GTP (1.5 μM) with or without compound (0.001-500 μM) was prepared and the absorbance monitored for 10-30 min to obtain the background/baseline. The addition of purified GEF/DH domain (0.08-0.2 μM) was carried out simultaneously and the absorbance was recorded for 30-45 min. The linear slope following the addition of the GEF was calculated and expressed as percentage of the control and plotted on an IC50 curve.

RhoA = biological target: T2, RhoA (Homo sapiens, UniProt P61586); assay: as above; assay type: biochemical
T2 construct: purchased Cytoskeleton Inc
T2 sequence (P61586 whole entry): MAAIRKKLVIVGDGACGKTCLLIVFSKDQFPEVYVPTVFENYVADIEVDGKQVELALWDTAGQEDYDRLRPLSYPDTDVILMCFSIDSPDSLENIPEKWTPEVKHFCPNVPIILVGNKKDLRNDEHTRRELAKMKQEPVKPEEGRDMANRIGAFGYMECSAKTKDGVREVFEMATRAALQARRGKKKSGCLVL
Protocol: as §1

Swiss 3T3 cells = assay: Immunofluorescence, cell morphology and bradykinin-mediated activation; assay type: cell-based
Protocol: Immunofluorescence: Serum-starved Swiss 3T3 cells were pretreated with compound for 2 h before the addition of bradykinin (100 ng/mL) for 20 min. Cells were fixed in 4% paraformaldehyde for 15 min at RT and stored in PBS. Fixed cells were treated with 0.5% Triton for 30 min at RT, 100 mM Glycine 30 min at RT, and 10% BSA for 30 min at 37° C. Primary antibody for GM130 (1:1000, BD Biosciences, Franklin Lakes, New Jersey, United States of America) was used to probe for 1 h at RT followed by CY3-conjugated secondary antibody (1:1000) for 1 h at RT in the dark. Actin was stained with fluorescein-conjugated phalloidin (1:300). Hoechst (1:2500) was used to stain the nuclei. Coverslips were mounted onto slides using antifade medium from Life Technologies (Carlsbad, California, United States of America). Images were taken with a Zeiss Axiovert S100 microscope (Carl Zeiss; Thornwood, New York, United States of America).

[1] = Solubility profile by optical density; assay type: physicochemical; conditions: for Ratio (optical density solution/solvent alone) / optical density of solution: RT, 10 minutes
Source text: ZCL278, ZCL279, and ZCL367 were all tested for solubility in the 5 FDA approved solvents to be used in humans. […] Results are shown below in Tables 2-4. Ratio refers to the optical density of the solution comprising the modulator compound/the optical density of the carder/solvent alone.

C57BL/6 mice = assay: Toxicity experiment, I.P. injection; assay type: in vivo; conditions: 0.4 mg/g or 0.8 mg/g body weight I.P.; 1 hour or 2 weeks
Protocol: (§2) ZCL 278 Toxicity Experiment: Individual C57BL/6 mice of 4-6 months of age from Jackson Laboratory (Bar Harbor, Maine, United States of America) were submitted to ZCL278 treatment for 5 minutes, 30 minutes, 2 hours and 24 hours. The dosage of ZCL278 for each mouse was 0.8 mg/g body weight delivered via intraperitoneal (I.P.) injection of a 15 mg/ml solution of ZCL278 was dissolved in the sesame oil (10% DMSO).
as §2, with “279” for “278”, “ZCL279” for “ZCL278”, “0.6” for “0.8”
ZCL367 Toxicity Experiment: Individual C57BL/6 mice of 4-6 months of age from Jackson Laboratory (Bar Harbor, Maine, United States of America) were submitted to ZCL367 treatment for 1 hour or 2 weeks. The dosage of ZCL367 for each time period was 0.4 mg/g body weight or 0.8 mg/g body weight, delivered via I.P. injection. […] Mice were sacrificed after end of 1 hour or 2 weeks.

mice = assay: Long-term survival after one injection; assay type: in vivo
Protocol: Long-term Survival. Groups of 10 mice were treated with one injection of ZCL278 (up to 0.8 mg/g), ZCL279 (up to 0.6 mg/g), or ZCL367 (up to 1.6 mg/g) to examine potential lethal dosage (the maximal dosage tested when no mice died). […] Durations longer than 3 months have not been tested. As a reference, working dosage for the behavioral assessment described below used 20 ug/g for injection, […] than the highest dosage of 0.8 mg/g tested in the long-term survival experiment.

Cdc42 [2] = biological target: T3, Cdc42 (Homo sapiens, UniProt P60953); assay: Rho-GEF IC50 assay (GEF/DH domain-mediated mant-GTP binding); assay type: biochemical; set-up: purchased Cytoskeleton Inc; conditions: read-out: IC50, GEF/DH domain-mediated mant-GTP binding/Cdc42 activation
T3 sequence (P60953 whole entry, the tested form may be a part): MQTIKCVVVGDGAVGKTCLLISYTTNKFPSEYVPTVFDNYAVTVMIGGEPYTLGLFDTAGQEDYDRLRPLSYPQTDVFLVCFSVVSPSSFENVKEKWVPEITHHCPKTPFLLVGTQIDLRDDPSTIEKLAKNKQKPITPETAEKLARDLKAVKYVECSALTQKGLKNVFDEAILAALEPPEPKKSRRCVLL
Protocol: as §1

Cdc42 [3] = biological target: T3, Cdc42; assay: mant-GTP binding to Cdc42 with or without GEF/DH domain; assay type: biochemical; set-up: purchased Cytoskeleton Inc; conditions: 5-500 μM
Protocol: (§3) Cdc42 (1 μM) was incubated with mant-GTP (1.5 μM) and varying concentrations of ZCL278, ZCL279, or ZCL367 (5-500 μM). Fluorescent readings were taken every minute for 10 m to acquire the baseline. The GEF/DH domain (0.08-0.2 μM) was added followed by readings taken every minute for another 30 m. The linear phase was calculated from within the time period of 12-22 m. Cdc42 (1 μM) was incubated with mant-GTP (1.5 μM) and varying concentrations of ZCL278, ZCL279, or ZCL367 (5-500 μM). Fluorescent readings were taken every minute for 30 m to monitor the binding of mant-GTP in the absence of GEF/DH domain.

Cdc42 [4] = biological target: T3, Cdc42; assay: Cdc42-GEF-assay, additional compound screening; assay type: biochemical; set-up: purchased Cytoskeleton Inc; conditions: percentages of ZCL367 normalized to batch; less than 100% = more potent inhibitor
Protocol: as §1, §3
Cdc42-GEF-assays were conducted on additional screening compounds in batches of 9 compounds per batch as described above in Example 2 using ZCL278 and ZCL367 as standards. Screening compounds were taken from the Specs Chemistry Database of 197,000 compounds for small molecule or the National Cancer Institute Compound Library. […] These compounds promote Cdc42-mantGTP binding without GEF. It is possible that these compounds can inhibit Cdc42-mantGTP binding with GEF. […] These compounds appear to have activity like ZCL279. […] However, upon the addition of GEF, the compounds appear to facilitate the binding of mantGTP to Cdc42 (high assay slope, relative to ZCL278)

[5] = Polyethylene Glycol300 (PEG-300), 30%

SMILES: O=C(N/N=C/c1ccccc1O)c1cc(O)cc(O)c1 [ZCL367, (E)-3,5-dihydroxy-N′-(2-hydroxybenzylidene)benzohydrazide]
- IC50 (Rac1): 190 nM
- IC50 (RhoA): 29700 nM
- bradykinin-mediated activation (Swiss 3T3 cells; Swiss 3T3 cells, bradykinin 100 ng/mL): inhibit bradykinin-mediated activation
- changes to cell morphology (Swiss 3T3 cells; after 4 h of treatment, more drastic after six hours): no effects on cell morphology
- Ratio (optical density solution/solvent alone) ([1]; 1,2-Propanediol, 40%): 2.667
- optical density of solution ([1]; 1,2-Propanediol, 40%): 0.104
- Ratio (optical density solution/solvent alone) ([1]; Dimethyl Sulfoxide (DMSO)): 1.048
- optical density of solution ([1]; Dimethyl Sulfoxide (DMSO)): 0.044
- Ratio (optical density solution/solvent alone) ([1]; Pluronic F-68, 10%): 2.026
- optical density of solution ([1]; Pluronic F-68, 10%): 0.079
- Ratio (optical density solution/solvent alone) [1, 5]: 2.333
- optical density of solution [1, 5]: 0.091
- Ratio (optical density solution/solvent alone) ([1]; Sesame Oil): 2.636
- optical density of solution ([1]; Sesame Oil): 0.116
- Ratio (optical density solution/solvent alone) ([1]; Sterile Water): 5.211
- optical density of solution ([1]; Sterile Water): 0.198
- Ratio (optical density solution/solvent alone) ([1]; Tween-80, 0.4%): 3.579
- optical density of solution ([1]; Tween-80, 0.4%): 0.136
- Ratio (optical density solution/solvent alone) ([1]; dPBS): 2.974
- optical density of solution ([1]; dPBS): 0.113
- solubility ([1]; in DM19): completely soluble
- gross anatomic toxicity (liver, kidney, spleen) (C57BL/6 mice): no gross anatomic toxicity
- Lethal Dosage (mice; mouse, in vivo): 0.8 mg/g
- Longest Dosing Duration (mice; mouse, in vivo): 2 months
- deaths in long-term survival (mice; one injection, 1.6 mg/g, in 1 month): one (day 20) out of four mice died
- IC50 (Cdc42 [2]): 98 nM
- effect on Cdc42 (mant-GTP binding) (Cdc42 [3]; in the absence of GEF domain): has no effect
- effect on Cdc42 (mant-GTP binding) (Cdc42 [3]; in the presence of GEF domain): acts as an inhibitor
- % ZCL367 (inhibitor activity) (Cdc42 [4]): 100%

Source: patent US12285393B2, “Roles of modulators of intersectin-Cdc42 signaling in Alzheimer's disease” (priority 2017, dated 2025)
